This note sets out measurements from publication PMC9063446, “Biochemical and in silico identification of the active site and the catalytic mechanism of the circadian deadenylase HESPERIN” (FEBS Open Bio, 2022).

The target in one series is T1, AtHESPERIN (Hesperin) (Arabidopsis thaliana, UniProt A8MS41).
T1 construct: gene CCR4-4; HESPERIN cDNA in pATHRA (pET-15b derived), E. coli BL21-GOLD(DE3); N-terminal 6xHis tag cut by HRV 3C protease; SEC; oligomer, mainly trimer (~150 kDa)
T1 sequence (A8MS41 1-417): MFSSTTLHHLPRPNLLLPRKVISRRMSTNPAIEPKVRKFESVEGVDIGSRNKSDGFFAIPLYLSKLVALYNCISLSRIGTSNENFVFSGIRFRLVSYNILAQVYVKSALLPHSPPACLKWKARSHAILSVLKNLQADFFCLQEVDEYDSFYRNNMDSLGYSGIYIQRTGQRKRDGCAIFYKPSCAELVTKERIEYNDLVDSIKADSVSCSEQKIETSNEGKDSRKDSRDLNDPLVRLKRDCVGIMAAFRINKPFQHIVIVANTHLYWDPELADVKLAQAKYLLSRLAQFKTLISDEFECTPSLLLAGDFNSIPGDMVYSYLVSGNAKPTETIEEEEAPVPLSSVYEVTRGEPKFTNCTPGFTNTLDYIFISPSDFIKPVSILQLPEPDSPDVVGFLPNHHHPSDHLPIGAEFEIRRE
The series can be described thus: colorimetric methylene blue poly(A) degradation assay, modified Hanes-Woolf plot. To be noted: substrate poly(A); Buffer R with 2 mM MgCl2, 0.1 M NaCl, pH 6.5, 25 °C; competitive, reaction product. In kind it is biochemical.

Series [1] concerns the molecule itself. The series can be described thus: native gel or EMSA; 7% PAGE under nondenaturing conditions for acidic proteins; 16 ug AtHESPERIN incubated with urea, up to 4 M; BSA and urease as mass standards.

The Ki is the equilibrium dissociation constant of an inhibitor or competing ligand from its target. Read a high Ki as a looser hold on the target. By stoichiometry N is commonly meant the number of molecules, sites or subunits per partner or assembly.

The molecule `Nc1ncnc2c1ncn2[C@@H]1O[C@H](COP(=O)(O)O)[C@@H](O)[C@H]1O` [AMP] yielded a Ki on AtHESPERIN (Hesperin) of 1.8 ± 0.2 µM.

B1: AtHESPERIN (enzyme, Arabidopsis thaliana, UniProt A8MS41 1-417, looked up)
chain: T1 sequence (A8MS41 1-417)
notes: AtHESPERIN (Hesperin), circadian EEP deadenylase of Arabidopsis thaliana, UniProtKB A8MS41; cDNA cloned in pATHRA behind 6x His tag and HRV 3C site; The His tag was removed with HRV 3C protease (site LEVLFQ/GP), so residues of the site may be left at the N-terminus; It calls the oligomer mainly trimeric; also called native AtHESPERIN; wild-type AtHESPERIN; source: E. coli BL21-GOLD (DE3), …
Regarding B1, the “stoichiometry N” value in series [1] came out at 3.
